Results from US20090011950A1, “METHOD FOR DETECTING ORAL SQUAMOUS-CELL CARCINOMA AND METHOD FOR SUPPRESSING THE SAME” (priority 2007, published 2009).

Columns and labels:
[1] = tested on: PRTFDC1 gene expression in oral squamous-cell carcinoma cell lines not expressing the PRTFDC1 gene; test: RT-PCR of PRTFDC1 gene expression after treatment with demethylating reagent or deacetylation inhibitory agent; format: cell-based; conditions: oral squamous-cell carcinoma cells (NA, HSC-2, ZA)
Protocol: (d) Oral squamous-cell carcinoma cells (NA, HSC-2, and ZA) were treated (+) or not treated (−) with 5-aza-dCyd ([…]) for 5 days or with TSA ([…]) for 24 hours. The results of RT-PCR analysis on the PRTFDC1 gene in the oral squamous-cell carcinoma cells are shown.
To examine the expression levels of the 6 above genes (the PRTFDC1 gene, the e10orf6 gene, the THNSL1 gene, the GPR158 gene, the MYO3A gene, and the GAD2 gene), 18 types of oral squamous-cell carcinoma cell line and normal oral epithelium cells were subjected to reverse transcriptase (RT)-PCR. Specifically, a single-chain cDNA was synthesized from the RNA extracted from each cultured cell line using the SuperScript First-Strand Synthesis System (Invitrogen). PCR was then performed using primer sequences listed in Table 4 (supplementary Table 1). Moreover, a glyceraldehyde-3-phosphate dehydrogenase (GAPDH) gene was used as a control. As a result, complete disappearance of PRTFDC1 mRNA expression could be confirmed in 8 cell lines in which homozygous deletion of chromosomal region 10p12 should not have taken place, as in the case of HSC-6 cells (FIG. 2c). […] Such disappearance of PRTFDC1 mRNA expression in the oral squamous-cell carcinoma cell lines may be due to a mechanism other than genomic deletion, such as an epigenetic phenomenon.
To examine if the suppressed expression of the PRTFDC1 gene was due to DNA methylation, oral squamous-cell carcinoma cell lines not expressing the PRTFDC1 gene were treated using a 1 μM or 5 μM demethylating reagent 5—aza—dCyd for 5 days and/or using deacetylation inhibitory agent TSA (100 ng/ml) for 24 hours. RNAs were extracted from these cells and then PRTFDC1 gene expression was examined by RT-PCR (FIG. 2d).

[2] = tested on: CpG islands of the PRTFDC1 gene; test: Demethylation of CpG islands by culturing oral squamous-cell carcinoma cells with demethylating reagent; format: cell-based; conditions: oral squamous-cell carcinoma cells cultured in the presence of the reagent

| Structure (SMILES) | PRTFDC1 gene expression (RT-PCR) ([1]; 5-aza-dCyd 1 μM or 5 μM for 5 days) | PRTFDC1 gene expression (RT-PCR) ([1]; 5-aza-dCyd 1 μM or 5 μM for 5 days, listed as 5-azadeoxycytidine) | demethylation of CpG islands [2] | PRTFDC1 gene expression (RT-PCR) ([1]; TSA 100 ng/ml for 24 hours) |
| --- | --- | --- | --- | --- |
| Nc1ncn([C@H]2C[C@H](O)[C@@H](CO)O2)c(=O)n1 [5-aza-dCyd, 5-azadeoxycytidine] | recovers its gene expression | possible to recover the expression level | possible to demethylate |  |
| CC(/C=C/C(=O)NO)=C\[C@@H](C)C(=O)c1ccc(N(C)C)cc1 [TSA] |  |  |  | no differences |
